Values quoted from earlier work in article PMC6256190 (Biomedical Reports, 2018).

Conditions: dry extract of ginger 100 mg to 2 g, 27 healthy American participants; glucuronides were detected

CCCCC[C@H](O)CC(=O)CCc1ccc(O)c(OC)c1 [6-gingerol]
Free compound in plasma: no free
